Source: patent US4365063A, “Antihypertensive agents” (American Home Products Corporation, priority 1981, dated 1982)

Assays:
[1] = tested on: spontaneously hypertensive rats; test: Systolic blood pressure lowering in spontaneously hypertensive rats; format: in vivo, rat
Method: The in vivo blood pressure lowering ability of the compounds of this invention was established by measuring the systolic pressure of spontaneously hypertensive rats with a Decker Caudal Plethysmograph or similar sensor device. The compound being tested is administered to groups of four rats and their blood pressure is read prior to compound administration and at 1.5 and 4 hours after compound administration. Depending upon the behavior of the compound being tested, the schedule of blood pressure readings and route of administration is modified. Initially the compounds are administered orally but where compound solubility is a factor, the compounds may be administered parenterally (i.e. i.p., i.m., s.c., i.v., etc.) as desired. The compounds of this invention were initially administered orally at a standard testing dose of 50 mg/kg., and where appropriate, smaller doses were administered to obtain a potency profile.
(§1) The following examples illustrate the preparation of a representative number of compounds of this invention. After each example, the Ca^+2 antagonist activity of the compound is presented in terms of percent relaxation (P.R.) at the stated concentration. Similarly, the antihypertensive activity is reported in terms of millimeters mercury (mmHg) blood pressure (B.P.) reduction at the stated time post oral dosing with the reported amount of compound.

rabbit aortic strips = test: Ca+2 antagonism: relaxation of potassium-contracted rabbit aortic strips; format: cell-based; conditions: Oryctolagus cuniculus, strips contracted with 100 millimoles potassium ion, read-out: percent relaxation (P.R.); for inhibition at 10 µM: 10^-5 M bath concentration; for inhibition at 1 µM: 10^-6 M bath concentration
Method: After a stable active tension has developed in the strip, as measured by Statham UC-2 force transducers and recorded on an eight channel Beckman Dynograph Polygraphic Recorder, an amount of the antagonist was added to the organ bath to make a 10^-5 molar concentration of antagonist. The depressant effect, expressed as percent relaxation, was taken from the mean of at least two experiments. […] A Ca^+2 antagonist producing a 20 percent relaxation of aortic tissue in this test procedure at a 10^-5 molar bath concentration of the antagonist, generally produced a significant reduction in blood pressure when a sufficient amount is given to the spontaneously hypertensive rat.
as §1

COC(=O)C1=C(C)NC2=C(C(=O)CN(C)C2)C1c1c(F)c(F)c(F)c(F)c1F (centres unmarked) [Example 1, 1,4,5,6,7,8-Hexahydro-2,7-dimethyl-4-[2,3,4,5,6-pentafluorophenyl]-5-oxo-1,7-naphthyridine-3-carboxylic Acid Methyl Ester]
blood pressure (B.P.) reduction ([1]; 5 mg/kg oral, at 1.5 hours): -21 mmHg | blood pressure (B.P.) reduction ([1]; 5 mg/kg oral, at 4 hours): -10 mmHg | blood pressure (B.P.) reduction ([1]; 10 mg/kg oral, at 1.5 hours): -63 mmHg | blood pressure (B.P.) reduction ([1]; 10 mg/kg oral, at 4 hours): -31 mmHg | blood pressure (B.P.) reduction ([1]; 25 mg/kg oral, at 1.5 hours): -71 mmHg | blood pressure (B.P.) reduction ([1]; 25 mg/kg oral, at 4 hours): -49 mmHg | blood pressure (B.P.) reduction ([1]; 50 mg/kg oral, at 1.5 hours): -95 mmHg | blood pressure (B.P.) reduction ([1]; 50 mg/kg oral, at 4 hours): -89 mmHg | inhibition at 10 µM (rabbit aortic strips): 22.9%

COC(=O)C1=C(C)NC2=C(C(=O)CN(Cc3ccccc3)C2)C1c1c(F)c(F)c(F)c(F)c1F (centres unmarked) [Example 2, 1,4,5,6,7,8-Hexahydro-2-methyl-5-oxo-4-(2,3,4,5,6-pentafluorophenyl)-7-(phenylmethyl)-1,7-naphthyridine-3-carboxylic Acid Methyl Ester]
blood pressure (B.P.) reduction ([1]; 50 mg/kg oral, at 1.5 hours): -20 mmHg | blood pressure (B.P.) reduction ([1]; 50 mg/kg oral, at 4 hours): -23 mmHg | inhibition at 1 µM (rabbit aortic strips): 56%

COC(=O)C1=C(C)NC2=C(C(=O)CNC2)C1c1c(F)c(F)c(F)c(F)c1F (centres unmarked) [Example 3, 1,4,5,6,7,8-Hexahydro-2-methyl-5-oxo-4-(2,3,4,5,6-pentafluorophenyl)-1,7-naphthyridine-3-carboxylic Acid Methyl Ester]
blood pressure (B.P.) reduction ([1]; 2.5 mg/kg oral, at 1.5 hours): -34 mmHg | blood pressure (B.P.) reduction ([1]; 2.5 mg/kg oral, at 4 hours): -30 mmHg | blood pressure (B.P.) reduction ([1]; 5 mg/kg oral, at 1.5 hours): -48 mmHg | blood pressure (B.P.) reduction ([1]; 5 mg/kg oral, at 4 hours): -36 mmHg | blood pressure (B.P.) reduction ([1]; 10 mg/kg oral, at 1.5 hours): -79 mmHg | blood pressure (B.P.) reduction ([1]; 10 mg/kg oral, at 4 hours): -24 mmHg | blood pressure (B.P.) reduction ([1]; 25 mg/kg oral, at 1.5 hours): -76 mmHg | blood pressure (B.P.) reduction ([1]; 50 mg/kg oral, at 1.5 hours): -64 mmHg | blood pressure (B.P.) reduction ([1]; 50 mg/kg oral, at 4 hours): -88 mmHg | inhibition at 10 µM (rabbit aortic strips): 78.7% | inhibition at 1 µM (rabbit aortic strips): 65.2%
